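Following 48 hours of exposure in 96-well plates, responses at five concentrations were used to interpolate endpoints linearly. GI50 is the concentration that inhibits growth by half. At the TGI there is no net growth.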
Columns and labels:
Test in all cases: DTP human tumour cell line panel, 48 h
786-0 renal = tested on: 786-0 renal
A498 renal = tested on: A498 renal
A549 NSCLC = tested on: A549 NSCLC
ACHN renal = tested on: ACHN renal
BT-549 breast = tested on: BT-549 breast
CAKI-1 renal = tested on: CAKI-1 renal
CCRF-CEM leukemia = tested on: CCRF-CEM leukemia
COLO 205 colon = tested on: COLO 205 colon
DU-145 prostate = tested on: DU-145 prostate
HCC-2998 colon = tested on: HCC-2998 colon
HCT-116 colon = tested on: HCT-116 colon
HCT-15 colon = tested on: HCT-15 colon
HL-60(TB) leukemia = tested on: HL-60(TB) leukemia
HOP-62 NSCLC = tested on: HOP-62 NSCLC
HOP-92 NSCLC = tested on: HOP-92 NSCLC
HT29 colon = tested on: HT29 colon
IGROV1 ovarian = tested on: IGROV1 ovarian
K-562 leukemia = tested on: K-562 leukemia
KM12 colon = tested on: KM12 colon
LOX IMVI melanoma = tested on: LOX IMVI melanoma
MALME-3M melanoma = tested on: MALME-3M melanoma
MCF7 breast = tested on: MCF7 breast
MDA-MB-231 breast = tested on: MDA-MB-231 breast
MDA-MB-435 = tested on: MDA-MB-435
MOLT-4 leukemia = tested on: MOLT-4 leukemia
NCI-H226 lung = tested on: NCI-H226 lung
NCI-H23 lung = tested on: NCI-H23 lung
NCI-H460 lung = tested on: NCI-H460 lung
NCI-H522 lung = tested on: NCI-H522 lung
NCI/ADR-RES ovarian = tested on: NCI/ADR-RES ovarian
OVCAR-3 ovarian = tested on: OVCAR-3 ovarian
OVCAR-4 ovarian = tested on: OVCAR-4 ovarian
OVCAR-5 ovarian = tested on: OVCAR-5 ovarian
OVCAR-8 ovarian = tested on: OVCAR-8 ovarian
PC-3 prostate = tested on: PC-3 prostate
RPMI-8226 leukemia = tested on: RPMI-8226 leukemia
RXF 393 renal = tested on: RXF 393 renal
SF-268 CNS = tested on: SF-268 CNS
SF-295 CNS = tested on: SF-295 CNS
SF-539 CNS = tested on: SF-539 CNS
SK-MEL-2 melanoma = tested on: SK-MEL-2 melanoma
SK-MEL-28 melanoma = tested on: SK-MEL-28 melanoma
SK-MEL-5 melanoma = tested on: SK-MEL-5 melanoma
SK-OV-3 ovarian = tested on: SK-OV-3 ovarian
SN12C renal = tested on: SN12C renal
SNB-19 CNS = tested on: SNB-19 CNS
SNB-75 CNS = tested on: SNB-75 CNS
SR leukemia = tested on: SR leukemia
SW-620 colon = tested on: SW-620 colon
T-47D breast = tested on: T-47D breast
TK-10 renal = tested on: TK-10 renal
U251 CNS = tested on: U251 CNS
UACC-257 melanoma = tested on: UACC-257 melanoma
UACC-62 melanoma = tested on: UACC-62 melanoma
UO-31 renal = tested on: UO-31 renal

CCn1nc(-c2ccc(C(=O)OC)cc2)nc2c(=O)n(C)c(=O)nc1-2
GI50 (786-0 renal): 1.32 µM | TGI (786-0 renal): 3.31 µM | GI50 (A498 renal): 0.166 µM | TGI (A498 renal): 0.988 µM | GI50 (A549 NSCLC): 0.413 µM | TGI (A549 NSCLC): 1.72 µM | GI50 (ACHN renal): 1.08 µM | TGI (ACHN renal): 2.26 µM | GI50 (BT-549 breast): 1.55 µM | TGI (BT-549 breast): 2.99 µM | GI50 (CAKI-1 renal): 1.22 µM | TGI (CAKI-1 renal): 2.46 µM | GI50 (CCRF-CEM leukemia): 0.566 µM | TGI (CCRF-CEM leukemia): 11.3 µM | GI50 (COLO 205 colon): 0.211 µM | TGI (COLO 205 colon): 0.643 µM | GI50 (DU-145 prostate): 1.11 µM | TGI (DU-145 prostate): 2.32 µM | GI50 (HCC-2998 colon): 0.763 µM | TGI (HCC-2998 colon): 2.24 µM | GI50 (HCT-116 colon): 0.283 µM | TGI (HCT-116 colon): 1.01 µM | GI50 (HCT-15 colon): 0.371 µM | TGI (HCT-15 colon): 1.61 µM | GI50 (HL-60(TB) leukemia): 0.319 µM | TGI (HL-60(TB) leukemia): 1.15 µM | GI50 (HOP-62 NSCLC): 1.07 µM | TGI (HOP-62 NSCLC): 2.58 µM | GI50 (HOP-92 NSCLC): 1.72 µM | TGI (HOP-92 NSCLC): 3.39 µM | GI50 (HT29 colon): 0.266 µM | TGI (HT29 colon): 2.4 µM | GI50 (IGROV1 ovarian): 1.08 µM | TGI (IGROV1 ovarian): 2.45 µM | GI50 (K-562 leukemia): 0.251 µM | TGI (K-562 leukemia): 1.09 µM | GI50 (KM12 colon): 0.421 µM | TGI (KM12 colon): 2.23 µM | GI50 (LOX IMVI melanoma): 0.375 µM | TGI (LOX IMVI melanoma): 1.5 µM | GI50 (MALME-3M melanoma): 0.216 µM | TGI (MALME-3M melanoma): 0.836 µM | GI50 (MCF7 breast): 0.148 µM | TGI (MCF7 breast): 0.372 µM | GI50 (MDA-MB-231 breast): 0.461 µM | TGI (MDA-MB-231 breast): 6.33 µM | GI50 (MDA-MB-435): 0.162 µM | TGI (MDA-MB-435): 0.31 µM | GI50 (MOLT-4 leukemia): 0.393 µM | TGI (MOLT-4 leukemia): 2.41 µM | GI50 (NCI-H226 lung): 1.36 µM | TGI (NCI-H226 lung): 2.69 µM | GI50 (NCI-H23 lung): 1.22 µM | TGI (NCI-H23 lung): 3.16 µM | GI50 (NCI-H460 lung): 0.488 µM | TGI (NCI-H460 lung): 3.27 µM | GI50 (NCI-H522 lung): 0.484 µM | TGI (NCI-H522 lung): 1.99 µM | GI50 (NCI/ADR-RES ovarian): 0.484 µM | TGI (NCI/ADR-RES ovarian): 2.42 µM | GI50 (OVCAR-3 ovarian): 0.181 µM | TGI (OVCAR-3 ovarian): 0.566 µM | GI50 (OVCAR-4 ovarian): 0.479 µM | TGI (OVCAR-4 ovarian): 1.88 µM | GI50 (OVCAR-5 ovarian): 0.46 µM | TGI (OVCAR-5 ovarian): 1.77 µM | GI50 (OVCAR-8 ovarian): 0.368 µM | TGI (OVCAR-8 ovarian): 1.45 µM | GI50 (PC-3 prostate): 0.347 µM | TGI (PC-3 prostate): 8.22 µM | GI50 (RPMI-8226 leukemia): 0.34 µM | TGI (RPMI-8226 leukemia): 1.76 µM | GI50 (RXF 393 renal): 1.57 µM | TGI (RXF 393 renal): 3.26 µM | GI50 (SF-268 CNS): 1.12 µM | TGI (SF-268 CNS): 3.06 µM | GI50 (SF-295 CNS): 0.637 µM | TGI (SF-295 CNS): 1.98 µM | GI50 (SF-539 CNS): 0.359 µM | TGI (SF-539 CNS): 1.55 µM | GI50 (SK-MEL-2 melanoma): 0.524 µM | TGI (SK-MEL-2 melanoma): 2.04 µM | GI50 (SK-MEL-28 melanoma): 1.38 µM | TGI (SK-MEL-28 melanoma): 2.88 µM | GI50 (SK-MEL-5 melanoma): 0.128 µM | TGI (SK-MEL-5 melanoma): 0.26 µM | GI50 (SK-OV-3 ovarian): 1.45 µM | TGI (SK-OV-3 ovarian): 2.75 µM | GI50 (SN12C renal): 0.193 µM | TGI (SN12C renal): 0.411 µM | GI50 (SNB-19 CNS): 1.11 µM | TGI (SNB-19 CNS): 2.37 µM | GI50 (SNB-75 CNS): 1.19 µM | TGI (SNB-75 CNS): 2.42 µM | GI50 (SR leukemia): 0.744 µM | TGI (SR leukemia): 12.1 µM | GI50 (SW-620 colon): 0.676 µM | TGI (SW-620 colon): 2.18 µM | GI50 (T-47D breast): 0.332 µM | TGI (T-47D breast): 1.42 µM | GI50 (TK-10 renal): 3.11 µM | TGI (TK-10 renal): 6.74 µM | GI50 (U251 CNS): 0.36 µM | TGI (U251 CNS): 1.38 µM | GI50 (UACC-257 melanoma): 0.306 µM | TGI (UACC-257 melanoma): 1.08 µM | GI50 (UACC-62 melanoma): 0.216 µM | TGI (UACC-62 melanoma): 0.594 µM | GI50 (UO-31 renal): 1.08 µM | TGI (UO-31 renal): 2.28 µM

Reference: PubChem BioAssay (NCI)
